How the values were obtained:
Type in all cases: cell-based
[1] = tested on: NCI-H3122; experiment: Growth of cancer cells (Cell Titer-Glo viability), NCI-H3122; details: Homo sapiens; NCI-H3122 (expressing ALK gene), 72 hrs; read-out: GI50
[2] = tested on: BaF3-TEL-JAK3; experiment: Cell growth (Cell Titer-Glo viability), BaF3-TEL-JAK3; details: Mus musculus; BaF3-TEL-JAK3 (stably expressing JAK3 kinase protein), 72 hrs
Source text: (§1) By testing the effect of the novel kinase inhibitors on the proliferation of cancer cells, the selectivity of the compounds of the present disclosure in inhibiting the proliferation of cancer cells was further assessed. In this example, human non-small cell lung cancer cell NCI-H1975 (expressing EGFR L858R/T790M double mutant gene), human skin squamous carcinoma cell A431 (expressing wild-type EGFR gene), non-small cell lung cancer NCI-H3255 (expressing EGFR L858R mutant gene), non-small cell lung cancer cell NCI-H3122 (expressing ALK gene), human non-small cell lung cancer cell A549 (expressing wild-type EGFR gene), human non-small cell lung cancer cell NCI-H2122 (expressing wild-type EGFR gene), human non-small cell lung cancer cell NCI-H460 (expressing wild-type EGFR gene), human non-small cell lung cancer cell PC-9 (expressing EGFR delE746_A750 mutant gene), Chinese hamster ovary cell CHO (Cricetulus griseus, hamster, Chinese, ovary), Chinese hamster lung cell CHL, human non-small cell lung cancer cell HCC827 (expressing mutant EGFR del19 gene), human lung adenocarcinoma cell HCC4006 (expressing mutant EGFR del19 gene), human non-small cell lung cancer cell NCI-H2228 (expressing wild-type ALK gene), and mouse primary B cell BaF3 were used, and the above cells were all purchased from ATCC (US). In addition, mouse BaF3-TEL-ALK (stably expressing ALK kinase), mouse BaF3-ALK-F1174L (stably expressing mutant ALK F1174L kinase), mouse BaF3-NPM-ALK (stably expressing ALK kinase), mouse BaF3-TEL-EGFR (stably expressing EGFR kinase), mouse BaF3-TEL-EGFR-T790M (stably expressing EGFR T790M mutant kinase), mouse BaF3-FL-EGFR-Del19 (stably expressing EGFR delE746_A750 mutant kinase), mouse BaF3-TEL-EGFR-L858R (stably expressing EGFR L858R mutant kinase), mouse BaF3-FL-EGFR-T790M-L858R (stably expressing EGFR T790M/L858R mutant kinase), mouse BaF3-TEL-INSR (stably expressing INSR protein), mouse BaF3-TEL-IGF1R (stably expressing IGF1R Protein), mouse BaF3-EML4-ALK (stably expressing EML4-ALK Protein), mouse BaF3-TEL-JAK3 (stably expressing JAK3 kinase protein), mouse BaF3-TEL-CSF1R (stably expressing CSF1R protein), and mouse BaF3-TEL-ALK-F1196M (stably expressing ALK F1196M mutant kinase) were also used in this example. The above cell lines were all established by our laboratory via the following process: kinase proteins or protein domain sequences of human ALK, ALK F1174L, EGFR, EGFR T790M, EGFR delE746_A750, EGFR L858, EGFR T790M/L858R, INSR, IGF1R, EML4-ALK, JAK3, CSF1R, ALK F1196M were amplified respectively by PCR, and were respectively inserted into MSCV-Puro vector (Clontech) with N-terminal TEL fragments and/or NPM fragments and/or TPR fragments; the resultants were stably transfected into mouse BaF3 cells by the means of retrovirus, and the IL-3 growth factors were removed, and eventually the ALK, ALK F1174L, EGFR, EGFR T790M, EGFR delE746_A750, EGFR L858, EGFR T790M/L858R, INSR, IGF1R, EML4-ALK, JAK3, CSF1R, ALK F1196M-transferred protein dependent cell lines were obtained.
(§2) The number of viable cells was determined quantitatively by a microplate reader using Cell Titer-Glo® (Promega, US) chemiluminescence cell viability assay kit.

[3] = tested on: NCI-H1975; experiment: Growth of cancer cells (Cell Titer-Glo viability), NCI-H1975; details: Homo sapiens; NCI-H1975 (EGFR L858R/T790M double mutant), 72 hrs
Procedure, shortened: (§3)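 Cells are counted as viable by CellTiter-Glo chemiluminescence. Murine BaF3 lines depend on a stably transfected TEL-fused kinase after IL-3 withdrawal, and the NSCLC lines express mutant EGFR.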

[4] = tested on: BaF3-TEL-EGFR-T790M; experiment: Cell growth (Cell Titer-Glo viability), BaF3-TEL-EGFR-T790M; details: Mus musculus; BaF3-TEL-EGFR-T790M (EGFR T790M mutant kinase), 72 hrs
Procedure, shortened: (§4)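 Human kinase sequences were PCR-amplified, fused to an N-terminal TEL fragment, and stably introduced into murine BaF3 by retrovirus. IL-3 was then removed to make growth kinase-dependent. Compound effects on these cells and on EGFR-mutant HCC827 and NCI-H3255 were scored by CellTiter-Glo luminescence.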

[5] = tested on: BaF3-EML4-ALK; experiment: Cell growth (Cell Titer-Glo viability), BaF3-EML4-ALK; details: Mus musculus, Ba/F3 EML4-ALK; BaF3-EML4-ALK (stably expressing EML4-ALK protein), 72 hrs
Source text: as §1, §2

[6] = tested on: BaF3-TEL-IGF1R; experiment: Cell growth (Cell Titer-Glo viability), BaF3-TEL-IGF1R; details: Mus musculus; BaF3-TEL-IGF1R (stably expressing IGF1R protein), 72 hrs
Source text: as §1, with “The above cell lines were all established by our laboratory via the following process: kinase proteins or protein domain sequences of human ALK, ALK F1174L, EGFR, EGFR T790M, EGFR delE746_A750, EGFR L858, EGFR T790M/L858R, INSR, IGF1R, EML4-ALK, JAK3, CSF1R, ALK F1196M were amplified respectively by PCR, and were respectively inserted into MSCV-Puro vector (Clontech) with N-terminal TEL fragments and/or NPM fragments and/or TPR fragments; the resultants were stably transfected into mouse BaF3 cells by the means of retrovirus, and the IL-3 growth factors were removed, and eventually the ALK, ALK F1174L, EGFR, EGFR T790M, EGFR delE746_A750, EGFR L858, EGFR T790M/L858R, INSR, IGF1R, EML4-ALK, JAK3, CSF1R, ALK F1196M-transferred protein dependent cell lines were obtained.” left out
as §2

[7] = tested on: A549; experiment: Growth of cancer cells (Cell Titer-Glo viability), A549; details: Homo sapiens; A549 (wild-type EGFR), 72 hrs
[8] = tested on: BaF3-TEL-INSR; experiment: Cell growth (Cell Titer-Glo viability), BaF3-TEL-INSR; details: Mus musculus; BaF3-TEL-INSR (stably expressing INSR protein), 72 hrs
Source text: as §1, §2

[9] = tested on: HCC827; experiment: Growth of cancer cells (Cell Titer-Glo viability), HCC827; details: Homo sapiens; HCC827 (mutant EGFR del19), 72 hrs
Procedure, shortened: as §4

[10] = tested on: PC-9; experiment: Growth of cancer cells (Cell Titer-Glo viability), PC-9; details: Homo sapiens; PC-9 (EGFR delE746_A750 mutant), 72 hrs
Procedure, shortened: as §3

[11] = tested on: BaF3; experiment: Cell growth (Cell Titer-Glo viability), BaF3; details: BaF3 mouse primary B cell, 72 hrs
[12] = tested on: BaF3-TEL-ALK; experiment: Cell growth (Cell Titer-Glo viability), BaF3-TEL-ALK; details: Mus musculus; BaF3-TEL-ALK (stably expressing ALK kinase), 72 hrs
Procedure, shortened: as §4

[13] = tested on: BaF3-TEL-CSF1R; experiment: Cell growth (Cell Titer-Glo viability), BaF3-TEL-CSF1R; details: Mus musculus; BaF3-TEL-CSF1R (stably expressing CSF1R protein), 72 hrs
Source text: as §1, with “The above cell lines were all established by our laboratory via the following process: kinase proteins or protein domain sequences of human ALK, ALK F1174L, EGFR, EGFR T790M, EGFR delE746_A750, EGFR L858, EGFR T790M/L858R, INSR, IGF1R, EML4-ALK, JAK3, CSF1R, ALK F1196M were amplified respectively by PCR, and were respectively inserted into MSCV-Puro vector (Clontech) with N-terminal TEL fragments and/or NPM fragments and/or TPR fragments; the resultants were stably transfected into mouse BaF3 cells by the means of retrovirus, and the IL-3 growth factors were removed, and eventually the ALK, ALK F1174L, EGFR, EGFR T790M, EGFR delE746_A750, EGFR L858, EGFR T790M/L858R, INSR, IGF1R, EML4-ALK, JAK3, CSF1R, ALK F1196M-transferred protein dependent cell lines were obtained.” left out
as §2

| SMILES | GI50 [1] | GI50 [2] | GI50 [3] | GI50 [4] | GI50 [5] | GI50 [6] | GI50 [7] | GI50 [8] | GI50 [9] | GI50 [10] | GI50 [11] | GI50 [12] | GI50 [13] |
| --- | --- | --- | --- | --- | --- | --- | --- | --- | --- | --- | --- | --- | --- |
| C=CC(=O)Nc1cc(Nc2ncc(Cl)c(Nc3ccccc3C(=O)NC)n2)c(OC)cc1N1CCN(C)CC1 [Compound 64, 2-(2-(5-acrylamido-2-methoxy-4-(4-methylpiperazin-1-yl)phenylamino)-5-chloropyrimidin-4-ylamino)-N-methylbenzamide] | 4.4 nM | 59 nM | 50 nM | 28 nM | 13 nM | 14 nM | 370 nM | 2.3 nM | 13 nM | 7.2 nM | 2900 nM | 10 nM |  |
| C=CC(=O)Nc1cc(Nc2ncc(Cl)c(Nc3ccccc3C(=O)NC)n2)c(OC)cc1N1CCN(CC)CC1 [Compound 65] | 3.5 nM | 45 nM | 5.1 nM | 30 nM | 8.6 nM | 2 nM | 220 nM | < 0.3 nM | 13 nM | 4.2 nM | 2100 nM | 3.1 nM |  |
| C=CC(=O)Nc1cc(Nc2ncc(Cl)c(Nc3ccccc3C(=O)NC)n2)c(OC)cc1N1CCC(N2CCOCC2)CC1 [Compound 67, 2-(2-(5-acrylamido-2-methoxy-4-(4-morpholinylpiperidin-1-yl)phenylamino)-5-chloropyrimidin-4-ylamino)-N-methylbenzamide] | 4.4 nM | 110 nM | 14 nM | 28 nM | 35 nM | 7.7 nM | 450 nM | 1.8 nM | 14 nM | 9.6 nM | 5400 nM | 13 nM |  |
| C=CC(=O)Nc1cc(Nc2ncc(Cl)c(Nc3ccccc3C(=O)NC)n2)c(OC)cc1N1CCN(C(C)=O)CC1 [Compound 68, 2-(2-(4-(4-ethanoylpiperazin-1-yl)-5-acrylamido-2-methoxyphenylamino)-5-chloropyrimidin-4-ylamino)-N-methylbenzamide] | 12 nM | 270 nM | 250 nM | 250 nM | 160 nM | 41 nM | 1700 nM | 14 nM | 83 nM | 97 nM | 5700 nM | 120 nM |  |
| C=CC(=O)Nc1cc(Nc2ncc(Cl)c(Nc3ccccc3C(=O)NC)n2)c(OC)cc1N1CCN(C(C)C)CC1 [Compound 69, 2-(2-(5-acrylamido-4-(4-isopropylpiperazin-1-yl)-2-methoxyphenylamino)-5-chloropyrimidin-4-ylamino)-N-methylbenzamide] | 4.5 nM | 37 nM | 79 nM |  | 1.4 nM |  |  | 49 nM | 62 nM | 15 nM | 1100 nM |  | 100 nM |
| C=CC(=O)Nc1cc(Nc2ncc(Cl)c(Nc3ccccc3C(=O)NC)n2)c(OC)cc1N1CCN(C2CCCCC2)CC1 [Compound 70, 2-(2-(5-acrylamido-4-(4-cyclohexylpiperazin-1-yl)-2-methoxyphenylamino)-5-chloropyrimidin-4-ylamino)-N-methylbenzamide] | 7.6 nM | 58 nM | 65 nM |  | 4.5 nM |  |  | < 0.3 nM | 140 nM | 35 nM | 1000 nM |  | 170 nM |
| C=CC(=O)Nc1cc(Nc2ncc(Cl)c(Nc3ccccc3C(=O)NC)n2)c(OC)cc1N(C)CCN(C)C [Compound 71, 2-(2-(5-acrylamido-4-((2-(dimethylamino)ethyl)(methyl)amino)-2-methoxyphenylamino)-5-chloropyrimidin-4-ylamino)-N-methylbenzamide] | 4.3 nM | 9 nM | 12 nM |  | 12 nM |  |  | 8.4 nM | 16 nM | 2 nM | 940 nM |  | 150 nM |
| C=CC(=O)Nc1cc(Nc2ncc(Cl)c(Nc3ccccc3C(=O)NC)n2)c(OC)cc1N1CCN(C2CCN(C)CC2)CC1 [Compound 72, 2-(2-(5-acrylamido-2-methoxy-4-(4-(1-methylpiperidin-4-yl)piperazin-1-yl)phenylamino)-5-chloropyrimidin-4-ylamino)-N-methylbenzamide] | 18 nM | 290 nM | 120 nM |  | 71 nM |  |  | 49 nM | 210 nM | 120 nM | 1700 nM |  | 370 nM |
